SMILES strings stand for the structures. Where “and” joins values, the source holds several entries; their conditions need not be identical. Identical values can stand only once.

The target in one experiment is T1, MAO-B (Homo sapiens, UniProt P27338).
T1 sequence (P27338 1-520): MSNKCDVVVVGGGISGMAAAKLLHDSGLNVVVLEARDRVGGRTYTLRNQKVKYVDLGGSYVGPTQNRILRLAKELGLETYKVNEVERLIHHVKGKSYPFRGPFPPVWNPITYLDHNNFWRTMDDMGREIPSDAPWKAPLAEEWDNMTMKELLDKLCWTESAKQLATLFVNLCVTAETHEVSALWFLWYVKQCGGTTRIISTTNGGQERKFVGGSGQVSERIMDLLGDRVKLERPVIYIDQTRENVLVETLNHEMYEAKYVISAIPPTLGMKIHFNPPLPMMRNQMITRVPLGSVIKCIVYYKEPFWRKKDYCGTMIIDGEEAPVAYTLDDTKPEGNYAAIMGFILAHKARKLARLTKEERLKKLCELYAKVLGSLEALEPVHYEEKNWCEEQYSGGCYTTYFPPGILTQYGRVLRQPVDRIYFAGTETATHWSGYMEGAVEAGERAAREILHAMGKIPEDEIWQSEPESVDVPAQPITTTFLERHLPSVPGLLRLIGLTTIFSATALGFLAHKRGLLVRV
Assay: not given
Details: not given
Take `CC(=O)c1ccc(OCc2ccc(F)cc2)cc1O` [Compound 2e, 2-Acetyl-5-(4-fluorobenzyloxy)phenol]: the “Reversibility of MAO-B inhibition by dialysis” value was “only partially reversed”.

The same experiment, now with this note: inhibitor at 4× IC50, incubated 15 minutes, dialyzed for 24 hours.
For the compound `CC(=O)c1ccc(OCc2ccc(F)cc2)cc1O` [Compound 2e, 2-Acetyl-5-(4-fluorobenzyloxy)phenol], the “Residual MAO-B catalytic activity after dialysis (% of negative control value)” value is given as 52%.

For the next experiment, the target named is human MAO-B (Homo sapiens, UniProt P27338).
Assay: not given
Particulars: Lineweaver-Burk graphs linear, intersect on y axis.
`CC(=O)c1ccc(OCc2ccc(F)cc2)cc1O` [Compound 2e, 2-Acetyl-5-(4-fluorobenzyloxy)phenol]: the “Mode of MAO-B inhibition” value is “competitive inhibitor”.

For a further experiment, the target named is T1, MAO-B. The experiment is described as follows: IC50 determination, inhibition of recombinant human MAO-B.
Details: not given
The experiment is classed as biochemical.
As a reminder, the IC50 is the concentration that gives 50% inhibition. As for `CC(=O)c1ccc(OCc2ccccc2)cc1` [Compound 3a, 4′-Benzyloxyacetophenone], the IC50 came out at 0.027 ± 0.003 µM.

With `CC(=O)c1ccc(OCCCc2ccccc2)cc1O` [Compound 2c, 2-Acetyl-5-(3-phenylpropoxy)phenol], the concentration for half-maximal inhibition (IC50) is 0.06 ± 0.013 µM.

Consider `CC(=O)c1ccc(OCc2cccc(C#N)c2)cc1O` [Compound 2k, 2-Acetyl-5-(3-cyanobenzyloxy)phenol], for which the IC50 was determined as 0.023 ± 0.0003 µM.

Turning to `CCCCOc1ccc(C(C)=O)c(O)c1` [Compound 2n, 2-Acetyl-5-butoxyphenol], the IC50 worked out at 0.103 ± 0.015 µM.

With `CC(=O)c1ccc(OCc2ccc(C)cc2)cc1O` [Compound 2j, 2-Acetyl-5-(4-methylbenzyloxy)phenol], the IC50 was 0.026 ± 0.002 µM.

For the compound `CC(=O)c1ccc(OCc2ccc(C(F)(F)F)cc2)cc1O` [Compound 2m, 2-Acetyl-5-[4-(trifluoromethyl)benzyloxy] phenol], the IC50 was 0.01 ± 0.003 µM.

With `CCC(=O)c1ccc(OCc2ccccc2)cc1O` [Compound 3b, 2-Propanoyl-5-benzyloxyphenol], the IC50 came out at 0.004 ± 0.001 µM.

Regarding `CC(=O)c1ccc(OCc2cccc(C)c2)cc1O` [Compound 2i, 2-Acetyl-5-(3-methylbenzyloxy)phenol], the IC50 was determined as 0.054 ± 0.01 µM.

As to `CC(=O)c1ccc(OCc2cccc(I)c2)cc1O` [Compound 2h, 2-Acetyl-5-(3-iodobenzyloxy)phenol], the IC50 came to 0.014 ± 0.002 µM.

Turning to `CCCCCCCOc1ccc(C(C)=O)c(O)c1` [Compound 2o, 2-Acetyl-5-heptyloxyphenol], the IC50 was found to be 0.156 ± 0.05 µM.

For the compound `CC(=O)c1ccc(OCCc2ccccc2)cc1O` [Compound 2b, 2-Acetyl-5-(2-phenylethoxy)phenol], the IC50 is 0.157 ± 0.041 µM.

Consider `CC(=O)c1ccc(O)cc1O` [Compound 4, 2′,4′-dihydroxyacetophenone, reference compound], for which the IC50 came out at 39.7 ± 5.03 µM.

As to `CC(=O)c1ccc(OCc2ccc(C#N)cc2)cc1O` [Compound 2l, 2-Acetyl-5-(4-cyanobenzyloxy)phenol], the IC50 came to 0.004 ± 0.001 µM.

The experiment is the same for the next values; noted with them: relative to weakest inhibitor of the series, 2b (IC50 = 0.157 µM).
Turning to `CC(=O)c1ccc(O)cc1O` [Compound 4, 2′,4′-dihydroxyacetophenone, reference compound], the “Fold weaker as MAO-B inhibitor than compound 2b” value turned out to be 250 fold.

The same experiment, now with this note: selectivity for the MAO-B isoform.
`CC(=O)c1ccc(OCc2ccccc2)cc1` [Compound 3a, 4′-Benzyloxyacetophenone]: the “SI (selectivity index, IC50(MAO-A)/IC50(MAO-B))” value was determined as 722.

`CC(=O)c1ccc(OCCCc2ccccc2)cc1O` [Compound 2c, 2-Acetyl-5-(3-phenylpropoxy)phenol]: the “SI (selectivity index, IC50(MAO-A)/IC50(MAO-B))” value stood at 178.

For `CC(=O)c1ccc(OCc2cccc(C#N)c2)cc1O` [Compound 2k, 2-Acetyl-5-(3-cyanobenzyloxy)phenol], the “SI (selectivity index, IC50(MAO-A)/IC50(MAO-B))” value came out at 71.

Consider `CCCCOc1ccc(C(C)=O)c(O)c1` [Compound 2n, 2-Acetyl-5-butoxyphenol], for which the “SI (selectivity index, IC50(MAO-A)/IC50(MAO-B))” value is given as 84.

Regarding `CC(=O)c1ccc(OCc2ccc(C)cc2)cc1O` [Compound 2j, 2-Acetyl-5-(4-methylbenzyloxy)phenol], the “SI (selectivity index, IC50(MAO-A)/IC50(MAO-B))” value is listed as 969.

In the case of `CC(=O)c1ccc(OCc2ccc(C(F)(F)F)cc2)cc1O` [Compound 2m, 2-Acetyl-5-[4-(trifluoromethyl)benzyloxy] phenol], the “SI (selectivity index, IC50(MAO-A)/IC50(MAO-B))” value is given as 1,360.

Turning to `CCC(=O)c1ccc(OCc2ccccc2)cc1O` [Compound 3b, 2-Propanoyl-5-benzyloxyphenol], the “SI (selectivity index, IC50(MAO-A)/IC50(MAO-B))” value was 9,550.

In the case of `CC(=O)c1ccc(OCc2cccc(C)c2)cc1O` [Compound 2i, 2-Acetyl-5-(3-methylbenzyloxy)phenol], the “SI (selectivity index, IC50(MAO-A)/IC50(MAO-B))” value came out at 328.

As for `CC(=O)c1ccc(OCc2ccccc2)cc1O` [Compound 2a, 2-Acetyl-5-benzyloxyphenol], the “SI (selectivity index, IC50(MAO-A)/IC50(MAO-B))” value is 1,194.

For the compound `CC(=O)c1ccc(OCc2cccc(I)c2)cc1O` [Compound 2h, 2-Acetyl-5-(3-iodobenzyloxy)phenol], the “SI (selectivity index, IC50(MAO-A)/IC50(MAO-B))” value is 1,921.

In the case of `CCCCCCCOc1ccc(C(C)=O)c(O)c1` [Compound 2o, 2-Acetyl-5-heptyloxyphenol], the “SI (selectivity index, IC50(MAO-A)/IC50(MAO-B))” value came to 387.

In the case of `CC(=O)c1ccc(OCCc2ccccc2)cc1O` [Compound 2b, 2-Acetyl-5-(2-phenylethoxy)phenol], the “SI (selectivity index, IC50(MAO-A)/IC50(MAO-B))” value is recorded as 30.

Consider `CC(=O)c1ccc(O)cc1O` [Compound 4, 2′,4′-dihydroxyacetophenone, reference compound], for which the “SI (selectivity index, IC50(MAO-A)/IC50(MAO-B))” value came out at 1.2.

For the compound `CC(=O)c1ccc(OCc2ccc(C#N)cc2)cc1O` [Compound 2l, 2-Acetyl-5-(4-cyanobenzyloxy)phenol], the “SI (selectivity index, IC50(MAO-A)/IC50(MAO-B))” value is recorded as 680.

Another experiment has as its target T2, recombinant human MAO-A (Homo sapiens, UniProt P21397).
T2 sequence (P21397 1-527): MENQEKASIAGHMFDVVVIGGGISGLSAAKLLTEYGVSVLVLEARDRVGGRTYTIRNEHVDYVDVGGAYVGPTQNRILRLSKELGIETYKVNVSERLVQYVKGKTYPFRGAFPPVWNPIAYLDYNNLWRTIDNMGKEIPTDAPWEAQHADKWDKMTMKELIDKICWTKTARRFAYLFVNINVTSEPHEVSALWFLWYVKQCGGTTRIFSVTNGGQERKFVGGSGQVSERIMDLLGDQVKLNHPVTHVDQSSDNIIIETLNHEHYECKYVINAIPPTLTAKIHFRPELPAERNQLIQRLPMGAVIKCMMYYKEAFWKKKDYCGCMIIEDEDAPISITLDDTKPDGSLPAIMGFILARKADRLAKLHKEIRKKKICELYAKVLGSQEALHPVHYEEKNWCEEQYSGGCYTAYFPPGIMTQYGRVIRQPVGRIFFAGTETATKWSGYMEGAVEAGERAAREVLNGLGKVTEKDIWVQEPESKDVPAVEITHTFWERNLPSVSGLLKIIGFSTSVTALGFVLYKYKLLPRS
The experiment is described as follows: IC50 determination, inhibition of recombinant human MAO-A. The experiment is classed as biochemical. The conditions noted are these: mean ± SD of triplicate determinations.
Turning to `CC(=O)c1ccc(OCc2ccccc2)cc1` [Compound 3a, 4′-Benzyloxyacetophenone], the IC50 turned out to be 19.5 ± 2.47 µM.

In the case of `CC(=O)c1ccc(OCCCc2ccccc2)cc1O` [Compound 2c, 2-Acetyl-5-(3-phenylpropoxy)phenol], the IC50 is 10.7 ± 2.3 µM.

On to `CC(=O)c1ccc(OCc2cccc(C#N)c2)cc1O` [Compound 2k, 2-Acetyl-5-(3-cyanobenzyloxy)phenol], for which the IC50 came to 1.64 ± 0.213 µM.

In the case of `CC(=O)c1ccc(OCc2cccc(F)c2)cc1O` [Compound 2d, 2-Acetyl-5-(3-fluorobenzyloxy)phenol], the IC50 was > 17.7 µM.

In the case of `CCCCOc1ccc(C(C)=O)c(O)c1` [Compound 2n, 2-Acetyl-5-butoxyphenol], the IC50 worked out at 8.65 ± 1.04 µM.

On to `CC(=O)c1ccc(OCc2ccc(C)cc2)cc1O` [Compound 2j, 2-Acetyl-5-(4-methylbenzyloxy)phenol], for which the IC50 is 25.2 ± 0.939 µM.

Turning to `CC(=O)c1ccc(OCc2ccc(Cl)cc2)cc1O` [Compound 2g, 2-Acetyl-5-(4-chlorobenzyloxy)phenol], the IC50 is 1.81 ± 0.284 µM.

In the case of `CC(=O)c1ccc(OCc2ccc(C(F)(F)F)cc2)cc1O` [Compound 2m, 2-Acetyl-5-[4-(trifluoromethyl)benzyloxy] phenol], the IC50 came to 13.6 ± 0.238 µM.

For the compound `CCC(=O)c1ccc(OCc2ccccc2)cc1O` [Compound 3b, 2-Propanoyl-5-benzyloxyphenol], the concentration for half-maximal inhibition (IC50) was > 17.7 µM and 38.2 µM.

As to `CC(=O)c1ccc(OCc2cccc(C)c2)cc1O` [Compound 2i, 2-Acetyl-5-(3-methylbenzyloxy)phenol], the IC50 is 17.7 ± 2.8 µM.

Take `CC(=O)c1ccc(OCc2ccccc2)cc1O` [Compound 2a, 2-Acetyl-5-benzyloxyphenol]: the IC50 was found to be 8.36 ± 0.442 µM.

On to `CC(=O)c1ccc(OCc2cccc(I)c2)cc1O` [Compound 2h, 2-Acetyl-5-(3-iodobenzyloxy)phenol], for which the concentration for half-maximal inhibition (IC50) was 26.9 ± 1.8 µM.

For the compound `CCCCCCCOc1ccc(C(C)=O)c(O)c1` [Compound 2o, 2-Acetyl-5-heptyloxyphenol], the IC50 was determined as 60.4 ± 8 µM.

For the compound `CC(=O)c1ccc(OCCc2ccccc2)cc1O` [Compound 2b, 2-Acetyl-5-(2-phenylethoxy)phenol], the IC50 is 4.7 ± 0.716 µM.

On to `CC(=O)c1ccc(O)cc1O` [Compound 4, 2′,4′-dihydroxyacetophenone, reference compound], for which the IC50 came to 47.7 ± 3.12 µM.

In the case of `CC(=O)c1ccc(OCc2cccc(Cl)c2)cc1O` [Compound 2f, 2-Acetyl-5-(3-chlorobenzyloxy)phenol], the IC50 was > 17.7 µM.

As for `CC(=O)c1ccc(OCc2ccc(C#N)cc2)cc1O` [Compound 2l, 2-Acetyl-5-(4-cyanobenzyloxy)phenol], the concentration for half-maximal inhibition (IC50) was 2.72 ± 0.352 µM.

(Values after publication PMC4507791 (Drug Design, Development and Therapy, 2015).)
